Tests used:
[1] = system: Yeast Edema of the Rat Paw; assay: Yeast edema and determination of pain threshold in the rat paw; assay type: in vivo; settings: 3 h
Experimental: test animals are male rats (SIV 50) weighing 100 to 180 g. […] 10 animals belonged to each dosage group.
The volume of the paw is determined according to the method described by Enders and Heidbrink, the pain threshold according to that described by Randall and Selitto (Arch. Int. Pharmacodyn CXI: 409, 1957).
Following initial measurements, […] of a 5% suspension of dried yeast is injected subplantarly into the right paw and the test substances are administered immediately. The blank control group is given Tragacanth mucilage only. After 3 hours the pain threshold and the volume of the paw are determined again.
The mean value of the increase in paw volume of the animals of the blank control after 3 hours is rated 100%, and the mean value of the increase in paw volume of the animals of the substance groups expressed as a percentage thereof. Pain threshold after 3 hours reflects the increase or decrease in percent, compared to the initial value.
In order to be able to calculate the ED50 according to the method by Lichtfield and Wilcoxon (J.P.E.T. 96:99, 1949), those animals in a dose group are considered protected when the paw swelling was at least 40% less than that of the blank control.

[2] = system: Kaolin Edema of the Rat Paw; assay: Kaolin edema of the rat paw; assay type: in vivo
Experimental: test animals used are the same as stated under Example B and up to the beginning of the test, the procedure corresponded to that described under this example.
After an initial measurement, a sterile 25% kaolin suspension was injected (0.05 ml/paw) subplantarly. The test substances are administered immediately, and after 60, 120, and 180 minutes the paw volume is again determined.
Evaluation of the tests was performed as stated under Example C, and the results so obtained presented below: […]

[3] = in vivo; settings: mouse
[4] = system: Granulation Tissue; assay: Cotton-pellet test (granulation tissue); assay type: in vivo; settings: rat, i.g., 2 × 150 mg/kg daily
Experimental: test animals are male rats (SIV 50) weighing 110 to 200 g. All test animals are kept fasting for 16 to 18 hours prior to the implantation of the pellets; after that food and water were available ad libitum. Each dose level of the chemical tested was administered to 12 animals. The substances were suspended in 1% Tragacanth mucilage and administered intragastrically by means of a stomach tube. The substances to be investigated and the control suspensions are administered once on the operating day following operation, and twice a day on the following 6 days (at intervals of 6 to 8 hours). The type of application and volume of liquid corresponded to that under B.
Under light ether anesthesia 4 sterile cotton pellets were implanted under the skin on the back of the animal. The weight of one pellet was 50 mg ± 0.5 mg. After 7 days treatment, the animals were sacrificed, the pellets removed with the granulation tissue, weighed and then dried in the incubator at +80°C to constant weight. The average dry weight of the granulation tissue of the control group was rated 100%, and deviations of the mean weights of the group treated with the test substance determined as a percentage thereof.
The weight of the animals is measured daily throughout the tests, and the percental increase determined. At the end of some tests, moreover, the suprarenal glands are removed and their weight determined.

[5] = system: Carrageenin Edema of the Rat Paw; assay: Carrageenin edema of the rat paw; assay type: in vivo
Experimental: test animals used are the same as stated under Example B and up to the initial measurement, the procedure corresponded to that described under this example.
After an initial measurement, the test substances are administered and after 60 minutes a 1% Carrageenin suspension is injected subplantarly (0.1 ml/paw). After 60 and 180 minutes the paw volume is again determined. Here, too, the blank control group was treated with the carrier alone.
The increase in the volume of the paw after 60 minutes is considered as the first phase of the biphase edema and that after 180 minutes, as compared to the 60-minute-value, as the second phase. Moreover, the total increase of the paw edema within 180 minutes, as compared to the initial value, is also determined.
Determination of the influence exerted by the substances upon the development of the paw edema and calculation of the ED50 are done as under Example B.

[6] = system: male mice (NMRI); assay: Hot-plate test (analgesia); assay type: in vivo; settings: mouse, i.g.
Experimental: male mice (NMRI) weighing 18 to 28 g are used as test animals. The animals are placed on a copper plate constantly kept at 55°C, and the time is measured until they lick their forepaws.
Following 3 initial measurements, the test substances are administered intragastrically. Afterwards the measurements are repeated over a period of 2 hours at intervals of 30 minutes. Each dose is administered to 10 animals selected from groups of 15 animals following the initial measurements.
The test substances are administered as a suspension in 1% Tragacanth mucilage, the volume of liquid amounting to 2 ml/100 g of body weight.
For the purpose of statistical evaluation according to Litchfield and Wilcoxon, those animals in which the reaction time has been extended by at least 100% are considered protected.

[7] = system: Arthritis Induced by the Freund Adjuvant; assay: Adjuvant arthritis; assay type: in vivo; settings: rat, i.g., 2 × 250.0 mg/kg
Experimental: test animals used are the same as described under Example E; food and water is given ad libitum.
On the first day of the test a 0.8% suspension of Mycobacterium butyrium in paraffin (0.05 or 0.1 ml/paw) is injected subplantarly into the left hind paw of the animals. […] From the 19th to the 22nd day the animals showing a reaction are treated intragastrically with the test substances. The right paw having been marked above the ankle-joint, the volume is determined daily from the 19th to the 22nd or 23rd day, according to the process described under Example B.
The volume of liquid, as well as of the carrier administered, corresponded to that described in the above tests.

[8] = system: Granuloma Pouch; assay: Granuloma pouch test; assay type: in vivo; settings: rat, ig., 2×50.0 mg/kg daily, section K
Experimental: Under light ether anesthesia 25 ml of air are injected under the shaved skin of the back. 0.5 ml of croton oil/animal (0.05%) are injected into the pouch formed by the air, and evenly distributed over the back by turning the animal.
On the third day croton oil (3%, 0.5 ml/animal) is again injected into this pouch.
The average dry weights of the granuloma pouches and the quantities of secretion of the groups subjected to treatment are then compared with those of the control group and the percental deviations calculated.
At the end of some tests the suprarenal glands are removed and the weight of these organs is also determined.
The weight of the animals is measured daily and the changes determined as a percentage.

[9] = po, ig., 200 mg/kg, section K, read-out: volume (paw, control = 100%)

COCCOC(=N)c1sc2ccccc2c1O [Example 10]
change in vivo at 200 mg/kg ([1]; po, ig., 200 mg/kg, section K): -49% | response vs control in vivo at 200 mg/kg [1, 9]: 73% | change in vivo at 250 mg/kg ([1]; po, ig., 250 mg/kg, section K (control -35)): -30% | response vs control in vivo at 250 mg/kg ([1]; po, ig., 250 mg/kg, section K, read-out: volume (paw, control = 100%)): 33% | 60 min. (paw edema) ([2]; ig., 200 mg/kg, section K): 67% | 120 min. (paw edema) ([2]; ig., 200 mg/kg, section K): 47% | 180 min. (paw edema) ([2]; ig., 200 mg/kg, section K): 46% | LD50 ([3]; po): ~1600 mg/kg

CCCC1C(=O)N2C(N(C)C)=Nc3ccc(C)cc3N2C1=O (centres unmarked) [Azapropazone, 3-Dimethylamino-7-methyl-1,2-(n-propylmalonyl)-1,2-dihydro-1,2-benzotriazine-dihydrate]
Volume (increase in paw volume, blank control = 100%) ([1]; i.g., 250.0 mg/kg): 98% | Pain Threshold (change vs initial value) ([1]; i.g., 400.0 mg/kg): -52% | Volume (increase in paw volume, blank control = 100%) ([1]; i.g., 400.0 mg/kg): 100% | Granulation Tissue % (Dry Weight) [4]: 76% | Increase in Body Weight [4]: not influenced | 60 Minutes (paw edema) ([2]; 250.0 mg/kg): 100% | 120 Minutes (paw edema) ([2]; 250.0 mg/kg): 93% | 180 Minutes (paw edema) ([2]; 250.0 mg/kg): 67% | 1st Phase (paw edema) ([5]; 100.0 mg/kg): 72% | 2nd Phase (paw edema) ([5]; 100.0 mg/kg): 50% | 3 Hrs. (total paw edema) ([5]; 100.0 mg/kg): 63% | 1st Phase (paw edema) ([5]; 400.0 mg/kg): 79% | 2nd Phase (paw edema) ([5]; 400.0 mg/kg): 21% | 3 Hrs. (total paw edema) ([5]; 400.0 mg/kg): 55% | Notes (analgesic activity) [6]: ineffective | Swelling [7]: 91%

N=C(NCCN1CCOCC1)c1sc2ccccc2c1O [Example 33]
change in vivo at 225 mg/kg ([1]; sc., 225 mg/kg, section K (control -10)): 34% | response vs control in vivo at 225 mg/kg ([1]; sc., 225 mg/kg, section K, read-out: volume (paw, control = 100%)): 46% | LD50 ([3]; sc): ~1000 mg/kg

CN(C)CCNC(=N)c1sc2ccccc2c1O [Example 31]
response vs control in vivo at 200 mg/kg [1, 9]: 75% | LD50 ([3]; po): > 1600 mg/kg | LD50 ([3]; sc): > 800 mg/kg

N=C(NCCN1CCCC1)c1sc2ccccc2c1O [Example 34]
response vs control in vivo at 125 mg/kg ([1]; sc., 125 mg/kg, section K, read-out: volume (paw, control = 100%)): 54% | granuloma pouch dry weight % [8]: 79% | secretion % [8]: 75% | increase in body weight % ([8]; control 55): 51% | LD50 ([3]; sc): ~600 mg/kg
